What was measured:
CT26 cancer cells = experiment: CT26 tumor model; assay type: in vivo, mice; details: fasudil 20 mg/kg; Y27632 10 mg/kg
Method: The same procedure as described above was repeated except that CT26 was used instead of the CT26.CL25 colon cancer cell line and fasudil (Selleck Chemicals, USA) at 20 mg/kg of body weight or Y27632 at 10 mg/kg of body weight was administered.

dendritic cells = experiment: Flow cytometry of dendritic cells from B16F10-Ova-bearing mice (maturation, subsets, cross presentation); assay type: in vivo
Method: To confirm the effect of the ROCK inhibitor Y27632 on the maturation process of dendritic cells, the inventors administered Y27362 to B16F10-Ova-bearing cancer model animals according to the same administration schedule as in Example 2-1, and the expression of CD40 and CD86, which are dendritic cell maturation markers, was analyzed by flow cytometry.
Recently, it has been shown that CD103 (corresponding to CD141 in humans)-positive dendritic cells (CD103 DC) play an important role in cancer cell phagocytosis and T cell anticancer immunity among dendritic cells (Broz et al., Cancer Cell, 26 (5): 638-652, 2014). Therefore, in order to analyze the effect of the ROCK inhibitor on CD103 DC, Y27632 was administered to B16F10-Ova-bearing cancer model mice according to the administration schedule described in the above Example 2-1, tumor tissues and tumor-draining lymph nodes were excised, and then flow cytometry analysis was performed using antibodies specifically binding to dendritic cell markers (CD11b, CD103 and CD8). It was confirmed that the ratio of CD103 DC was increased by Y27632 in both the tumor-draining lymph nodes (FIG. 15A) and the tumor tissues (FIG. 15B). On the other hand, in the case of CD11b-positive and CD8-positive dendritic cells, no change due to administration of Y27632 was observed.
The present inventors analyzed cross presentation activity which is one of functions of dendritic cells via flow cytometry analysis using an antibody capable of detecting a cancer antigen (H-2K^b-Ova) capable of activating T cells, through flow cytometry analysis using an antibody (H-2K^b monoclonal antibody, Invitrogen, USA). It was confirmed that the cross presentation of CD103 DC was increased by Y27632 in both tumor-draining lymph nodes (FIG. 15C) and tumor tissues (FIG. 15D).
Further, the present inventors analyzed CD40, which is one of the markers of dendritic cell function capable of activating T cells and a DC maturation marker of dendritic cells, by flow cytometry analysis using anti-CD40 antibodies. As shown in FIGS. 15E and 15F, it was confirmed that the maturation of CD103 DC was increased by Y27632 in the tumor-draining lymph nodes.
The present inventors analyzed a series of immunological induction processes occurring after the phagocytosis against cancer cells or cancer-specific antigens in order to analyze the mechanism of the combination therapy for the anti-cancer immune response. Specifically, in order to confirm the effect of the combination therapy on the dendritic cell maturation, Y27632 and doxorubicin were administered to B16F10-Ova-bearing cancer model mice as described above, and then tumor-draining lymph nodes were isolated and the expression of CD40 and CD86, which are dendritic cell maturation markers, was analyzed by flow cytometry analysis.
Further, in order to confirm the effect of the combined treatment on the cross presentation process to the dendritic cells, the present inventors administered Y27632 and doxorubicin to B16F10-Ova-bearing cancer model mice as described above, isolated the tumor-draining lymph nodes, and then cross presentation activity, which is one of functions of dendritic cells, was analyzed via flow cytometry analysis using an antibody capable of detect a cancer antigen (H-2K^b-Ova) capable of activating T cells, through flow cytometry analysis using an antibody (H-2K^b monoclonal antibody, Invitrogen, USA).
The present inventors then investigated the effect of the combination of the drugs on the maturation process of dendritic cells. Specifically, the tumor-draining lymph nodes were isolated after administration of Y27632 and/or cisplatin in the B16F10-Ova-bearing cancer model, and the expression level of CD40 and CD86, the dendritic cell maturation markers, was analyzed by flow cytometry. As shown in FIG. 19C and 19D, there was no influence on the maturation of dendritic cells when Y27632 alone, cisplatin alone, or the combination of the two were administered (FIGS. 19C and 19D). […]

IFN-γ = IFN-γ ELISA of draining lymph node cells given β-gal peptide; assay type: in vivo, mice
Method: After draining lymph node was isolated from the tumor model animals, 5 μg/ ? of β-gal peptide (TPHPARIGL, SEQ ID NO: 1, including the naturally processed H-2 Ld limited epitope comprising amino acid residue 876 to 884 of β-galactosidase) which simulates β-gal peptide, a model antigen present in CT26.CL25 cells, or PBS were administered and the expression of IFN-γ was measured by IFN-γ ELISA kit (R&D Systems, Inc., USA).

[1] = tumor-draining lymph nodes, cisplatin study
[2] = tumor-draining lymph nodes, doxorubicin 5 mg/kg, Y27632 10 mg/kg

C[C@@H](N)[C@H]1CC[C@H](C(=O)Nc2ccncc2)CC1 [Y27632]
growth of cancer (size of the tumor) (CT26 cancer cells): inhibited the growth of cancer | ratio of CD8-positive dendritic cells (dendritic cells; mouse, in vivo): no change | ratio of CD11b-positive dendritic cells (dendritic cells; mouse, in vivo): no change | cross presentation (H-2Kb-Ova) of CD103 DC (dendritic cells; tumor tissues): increased | ratio of CD103 DC (dendritic cells; tumor tissues): increased | expression of CD40 and CD86 in dendritic cells (dendritic cells; tumor-draining lymph node, schedule of Example 2-1): did not affect | cross presentation (H-2Kb-Ova) of CD103 DC (dendritic cells; tumor-draining lymph nodes): increased | cross-presentation (H-2Kb-Ova) in CD8 DCs (dendritic cells; tumor-draining lymph nodes): increased | maturation of CD103 DC (CD40) (dendritic cells; tumor-draining lymph nodes): increased | ratio of CD103 DC (dendritic cells; tumor-draining lymph nodes): increased | cross-presentation function (H-2Kb-Ova) of dendritic cells (dendritic cells; [1]): increase | maturation of dendritic cells (CD40 and CD86) (dendritic cells; [1]): no influence | antigenic cross presentation (H-2Kb-Ova) in the dendritic cells (dendritic cells; [2]): did not significantly increase | dendritic cell maturation (expression of CD40 and CD86) (dendritic cells; [2]): no effect | IFN-γ level in draining lymph node (IFN-γ; PBS liposome-treated group): increased | INF-γ expression in CD8-negative cells of draining lymph node (IFN-γ; mouse, in vivo): no difference in INF-γ expression | amount of IFN-γ in CD8-positive cells of draining lymph node (IFN-γ; mouse, in vivo): increased
